Test results taken from US5705509A, “Tricyclic heterocyclic compounds as 5-HT4 receptor antagonists” (SmithKline Beecham plc, priority 1993, dated 1998).

Biological target: T1, 5-HT4 receptor (Cavia porcellus, UniProt O70528)
T1 construct: Longitudinal muscle-myenteric plexus preparations, approximately 3 cm long, are obtained from the distal colon region; from tissue; host or cells: guinea-pig distal colon, longitudinal muscle-myenteric plexus
Assay: Guinea pig colon 5-HT4 receptor antagonist activity (reduction of 5-HT evoked contraction of longitudinal muscle-myenteric plexus)
Conditions: distal colon longitudinal muscle-myenteric plexus; contraction evoked by 5-HT; methiothepin 10^-7 M and granisetron 10^-6 M present; n=4; read-out: pIC50 (-log concentration of antagonist which reduces the contraction by 50%) (converted)
Description: Male guinea-pigs, weighing 250-400 g are used. Longitudinal muscle-myenteric plexus preparations, approximately 3 cm long, are obtained from the distal colon region. These are suspended under a 0.5 g load in isolated tissue baths containing Krebs solution bubbled with 5% CO2 in O2 and maintained at 37° C. In all experiments, the Krebs solution also contains methiothepin 10^-7 M and granisetron 10^-6 M to block effects at 5-HT1, 5-HT2 and 5-HT3 receptors.
After construction of a simple concentration-response curve with 5-HT, using 30s contact times and a 15 min dosing cycle, a concentration of 5-HT is selected so as to obtain a contraction of the muscle approximately 40-70% maximum(10^-9 M approx). The tissue is then alternately dosed every 15 min with this concentration of 5-HT and then with an approximately equi-effective concentration of the nicotine receptor stimulant, dimethylphenylpiperazinium (DMPP). After obtaining consistent responses to both 5-HT and DMPP, increasing concentrations of a putative 5-HT4 receptor antagonist are then added to the bathing solution. The effects of this compound are then determined as a percentage reduction of the contractions evoked by 5-HT or by DMPP. […] A compound which reduces the response to 5-HT but not to DMPP is believed to act as a 5-HT4 receptor antagonist.

T1 sequence (O70528 whole entry): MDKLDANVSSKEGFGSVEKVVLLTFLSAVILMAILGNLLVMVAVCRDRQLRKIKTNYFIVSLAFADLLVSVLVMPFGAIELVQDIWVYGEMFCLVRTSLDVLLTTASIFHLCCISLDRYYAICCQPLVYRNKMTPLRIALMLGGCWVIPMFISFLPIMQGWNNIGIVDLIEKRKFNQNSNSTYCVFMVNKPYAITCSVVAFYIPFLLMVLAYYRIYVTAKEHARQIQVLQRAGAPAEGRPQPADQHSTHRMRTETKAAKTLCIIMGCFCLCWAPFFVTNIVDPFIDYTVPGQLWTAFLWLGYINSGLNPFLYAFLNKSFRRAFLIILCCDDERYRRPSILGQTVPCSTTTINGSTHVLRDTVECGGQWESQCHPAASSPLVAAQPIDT

IC50: 166 nM
Structure (SMILES): CCCCN1CCC(COC(=O)c2cc3[nH]cnc3c3c2OCCO3)CC1 [Example 1, (1-Butyl-4-piperidinyl)methyl 1 H-7,8-dihydro-[1,4]-dioxino[2,3-g]benzimidazole-5-carboxylate]
